Here are results for 17 molecules from the ASAP Discovery antiviral challenge data (2025).

Structures are written as SMILES. Values after ≈ are worked out from the molar mass of the structure shown. Values joined by “and” are separate entries in the source; they are usually repeats but may differ in a detail not shown here. Identical values can stand only once.

As usually defined, the logD is lipophilicity at a set pH, counting ionised and neutral species. Low readings indicate lower lipophilicity, high ones higher lipophilicity. Broadly, the kinetic solubility is solubility judged after dilution from a stock solution rather than from solid. The microsomal CLint is a measure of how fast metabolising enzymes remove a compound, apart from limits set by blood flow. Low readings indicate greater metabolic stability, high ones faster metabolism. A word on the Papp: it is the rate of passage across a membrane or cell layer, normalised by area and donor concentration. A low value points to poor permeation.

Assay in data set [1]: not given
This is another data set of the same source.

For data set [2] the following is noted: mouse; liver_microsomes.
For data set [3] the following is noted: mdck_mdr1.
The conditions of data set [4]: human; liver_microsomes.

For the molecule `CC(C)[C@H](Nc1ncnc2[nH]c(-c3cncc(S(C)(=O)=O)c3)cc12)c1ccc2c(c1)S(=O)(=O)CCC2` (racemic), the logD came to 3.1. In data set [1], this molecule yielded a kinetic solubility of 31 µM (≈ 16.3 µg/mL). In data set [2], this molecule came in with a microsomal CLint of 272 µL/min/mg. Also, in data set [3], the Papp worked out at 0.491 ×10⁻⁶ cm/s. In data set [4], this molecule registered a microsomal CLint of 635 µL/min/mg.
Taken in the same sequence, the figures for `CN(c1ccc2c(c1)CNC2)[C@H](C(=O)NCC(F)F)c1cc(Cl)cc(C2CC2)c1` (racemic) were 1.6, 172 µM (≈ 72.2 µg/mL), 10.6 µL/min/mg, 2.1 ×10⁻⁶ cm/s and 17.1 µL/min/mg.
On to `NCc1cccc(CNC(=O)[C@H](NC(=O)OCc2ccccc2)c2ccc(OCc3ccccc3)cc2)c1` (racemic), for which the logD stood at 2.7. Moreover, the kinetic solubility in data set [1] came to 78 µM (≈ 39.7 µg/mL). In data set [2], this molecule showed a microsomal CLint of 2.73 µL/min/mg. For the same molecule, in data set [3], the Papp was 1.44 ×10⁻⁶ cm/s. In data set [4], this molecule registered a microsomal CLint of 3.89 µL/min/mg.
For the molecule `CC(C)(C)[C@H](Nc1ncnc2[nH]c(-c3cnn(CC(N)=O)c3)cc12)c1ccc2c(c1)OCCO2` (single isomer, unassigned), the logD is 3 and 3.1. Moreover, the kinetic solubility in data set [1] was 89 µM and 104 µM. In addition, the microsomal CLint in data set [2] is 44 µL/min/mg and 39 µL/min/mg. In addition, the Papp in data set [3] was 0.364 ×10⁻⁶ cm/s and 1.01 ×10⁻⁶ cm/s. The microsomal CLint in data set [4] is 153 µL/min/mg and 100 µL/min/mg.
On to `CC(C)(C)[C@H](Nc1ncnc2[nH]c(-c3cnn(CC(N)=O)c3)cc12)c1ccc2c(n1)OCCO2` (single isomer, unassigned), for which the logD was 2.7 and 2.9. Moreover, the kinetic solubility in data set [1] is 372 µM and 390 µM. For the same molecule, in data set [2], the microsomal CLint was 10 µL/min/mg and 30 µL/min/mg. The Papp in data set [3] was 1.02 ×10⁻⁶ cm/s and 1.53 ×10⁻⁶ cm/s. Moreover, the microsomal CLint in data set [4] was 27 µL/min/mg and 42 µL/min/mg.
For `CC(C)[C@H](Nc1ncnc2[nH]c(-c3cnn(C)c3)cc12)c1ccc2c(c1)S(=O)(=O)CCC2` (single isomer, unassigned), the logD is 2.9 and 3.2. Besides, the kinetic solubility in data set [1] came to 111 µM (≈ 50 µg/mL). For the same molecule, the microsomal CLint in data set [2] is 255 µL/min/mg and 140 µL/min/mg. Also, the apparent permeability coefficient (Papp) in data set [3] is 1.18 ×10⁻⁶ cm/s and 1.5 ×10⁻⁶ cm/s. Further, in data set [4], the microsomal CLint was 169 µL/min/mg and 405 µL/min/mg.
`CC(C)[C@H](Nc1ncnc2[nH]c(-c3cnn(C)c3C#N)cc12)c1ccc2c(c1)S(=O)(=O)CCC2` (single isomer, unassigned): the logD is 3.3 and 3.7. The solubility (kinetic) in data set [1] was 22 µM and 26 µM. The microsomal CLint in data set [2] was 311 µL/min/mg and 709 µL/min/mg. The Papp in data set [3] is 4.33 ×10⁻⁶ cm/s and 1.82 ×10⁻⁶ cm/s. Besides, the microsomal CLint in data set [4] was 935 µL/min/mg and 516 µL/min/mg.
For `CC(C)[C@H](Nc1ncnc2[nH]c(-c3cnn(C)c3C#N)cc12)c1ccc2c(n1)NC(=O)CO2` (single isomer, unassigned), the logD is 3.7. In data set [1], this molecule registered a solubility (kinetic) of 28 µM (≈ 12.4 µg/mL). Besides, in data set [2], the microsomal CLint is 131 µL/min/mg and 189 µL/min/mg. In addition, the Papp in data set [3] was 9.35 ×10⁻⁶ cm/s and 9.64 ×10⁻⁶ cm/s. Besides, the microsomal CLint in data set [4] was 137 µL/min/mg and 51 µL/min/mg.
As for `CC(C)[C@H](Nc1ncnc2[nH]c(-c3cnn(CC(N)=O)c3)cc12)c1ccc2c(c1)S(=O)(=O)CCC2` (single isomer, unassigned), the logD was 2.1 and 2. The solubility (kinetic) in data set [1] was 338 µM and 335 µM. For the same molecule, in data set [2], the microsomal CLint was 39 µL/min/mg and 96 µL/min/mg. For the same molecule, the Papp in data set [3] is 1.98 ×10⁻⁶ cm/s and 0.719 ×10⁻⁶ cm/s. For the same molecule, the microsomal CLint in data set [4] was 240 µL/min/mg and 115 µL/min/mg.
As to `CC(C)[C@H](Nc1ncnc2[nH]c(-c3cnn(CC(N)=O)c3)cc12)c1ccc2c(n1)OCCO2` (single isomer, unassigned), the logD was 2.3 and 2.4. In data set [1], the kinetic solubility was 377 µM and 395 µM. Besides, the microsomal CLint in data set [2] was 5 µL/min/mg and 9 µL/min/mg. Further, the Papp in data set [3] is 1.27 ×10⁻⁶ cm/s and 0.47 ×10⁻⁶ cm/s. Further, the microsomal CLint in data set [4] is 12 µL/min/mg and 18 µL/min/mg.
Regarding `CNC(=O)Cn1cc(-c2cc3c(N[C@H](c4ccc5c(c4)S(=O)(=O)CCC5)C(C)C)ncnc3[nH]2)cn1` (single isomer, unassigned), the logD is 2.4 and 2.3. For the same molecule, the solubility (kinetic) in data set [1] was 323 µM and 294 µM. Further, the microsomal CLint in data set [2] was 111 µL/min/mg and 44 µL/min/mg. In addition, the Papp in data set [3] is 0.396 ×10⁻⁶ cm/s and 0.916 ×10⁻⁶ cm/s. The microsomal CLint in data set [4] was 92 µL/min/mg and 237 µL/min/mg.
`CNC(=O)c1cc2c(N[C@H](c3ccc4c(c3)NC(=O)CO4)C(C)C)ncnc2[nH]1` (single isomer, unassigned) came in with a logD of 2.9. Moreover, the kinetic solubility in data set [1] worked out at 380 µM (≈ 150 µg/mL). This molecule also yielded an intrinsic clearance (microsomal CLint) in data set [2] of 33 µL/min/mg. Besides, the Papp in data set [3] came out at 1.21 ×10⁻⁶ cm/s. The microsomal CLint in data set [4] amounted to 175 µL/min/mg.
In the case of `COCCNC(=O)[C@H](Nc1ccc2c(c1)CNC2)c1cc(Cl)cc(C2CC2)c1` (single isomer, unassigned), the logD turned out to be 1. The molecule further came in with a kinetic solubility in data set [1] of 320 µM (≈ 128 µg/mL). The molecule also displayed a microsomal CLint in data set [2] of 11.7 µL/min/mg. The molecule also had a Papp in data set [3] of 1.4 ×10⁻⁶ cm/s. Besides, the microsomal CLint in data set [4] is 19.7 µL/min/mg.
`COc1ccc([C@H](Cc2nnn[nH]2)NC(=O)c2ncnc3[nH]ccc23)cc1` (single isomer, unassigned) registered a logD of -0.5. In data set [1], this molecule gave a solubility (kinetic) of 367 µM (≈ 134 µg/mL). The molecule also came in with a microsomal CLint in data set [2] of 7 µL/min/mg. The molecule further gave a Papp in data set [3] of 1.07 ×10⁻⁶ cm/s. For the same molecule, the microsomal CLint in data set [4] was 2 µL/min/mg.
In turn, `C[C@H](C(=O)O)[C@@H](NC(=O)c1ncnc2[nH]ccc12)c1ccc(Br)cc1` (single isomer, unassigned) gave a logD of 0.6. Further, the solubility (kinetic) in data set [1] is 358 µM (≈ 144 µg/mL). In addition, the microsomal CLint in data set [2] was 4 µL/min/mg. In data set [3], this molecule came in with a Papp of 0.682 ×10⁻⁶ cm/s. The same molecule showed a microsomal CLint in data set [4] of 3 µL/min/mg.
`Cc1nn(C)cc1-c1cc2c(N[C@H](c3ccc4c(c3)S(=O)(=O)CCC4)C(C)C)ncnc2[nH]1` (single isomer, unassigned): the logD was 3.1 and 3.4. In addition, the kinetic solubility in data set [1] is 65 µM and 63 µM. Further, in data set [2], the microsomal CLint was 202 µL/min/mg and 390 µL/min/mg. Also, in data set [3], the Papp is 4.36 ×10⁻⁶ cm/s and 3.69 ×10⁻⁶ cm/s. The microsomal CLint in data set [4] is 273 µL/min/mg and 251 µL/min/mg.
Molecule `Cn1ncc(-c2cc3c(N[C@H](c4ccc5c(n4)OCCO5)C(C)(C)C)ncnc3[nH]2)c1C#N` (single isomer, unassigned) showed a logD of 3.3. In data set [1], this molecule came in with a kinetic solubility of 24 µM (≈ 10.7 µg/mL). In data set [2], this molecule returned a microsomal CLint of 226 µL/min/mg. Besides, in data set [3], the apparent permeability (Papp) stood at 14 ×10⁻⁶ cm/s. This molecule also showed a microsomal CLint in data set [4] of 283 µL/min/mg.
